Values of other authors in paper PMC5729432, “A Phase 1 study of ARQ 087, an oral pan-FGFR inhibitor in patients with advanced solid tumours” (British Journal of Cancer, 2017).
One block for each compound: values may come before it.

How the values were obtained:
[1] = test system: patients with advanced solid tumours; design: method as in Andre et al, 2013b; Saka et al, 2017; conditions: ref Andre et al, 2013b; Saka et al, 2017
patients = test system: patients; design: method as in Nogova et al, 2017; conditions: at the RP2D; ref Nogova et al, 2017
[2] = test system: patients with advanced solid tumors; design: method as in Tabernero et al, 2015; conditions: ref Tabernero et al, 2015

Structure (SMILES): COc1cc(CCc2cc(NC(=O)c3ccc(N4CC(C)NC(C)C4)cc3)n[nH]2)cc(OC)c1 (stereo not shown) [AZD3547]
- common treatment-related AEs [1]: fatigue, mucositis, nausea, CSR, and hyperphosphataemia

- patients requiring dose adjustments or interruptions for hyperphosphataemia (patients): 50%
Structure (SMILES): CCN1CCN(c2ccc(Nc3cc(N(C)C(=O)Nc4c(Cl)c(OC)cc(OC)c4Cl)ncn3)cc2)CC1 [BGJ398]

- dose interruptions for hyperphosphataemia [2]: 31%
- dose modifications for hyperphosphataemia [2]: 8%
Structure (SMILES): COc1cc(OC)cc(N(CCNC(C)C)c2ccc3ncc(-c4cnn(C)c4)nc3c2)c1 [JNJ-42756493]
- AE asthenia [2]: 55%
- AE constipation [2]: 34%
- AE decreased appetite [2]: 32%
- AE dry mouth [2]: 45%
- AE hyperphosphataemia [2]: 65%
- AE nail toxicity [2]: 35%
